Assay results taken from PubChem BioAssay (NCI).
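Briefly, cells in 96-well plates were exposed to five compound concentrations for 48 h, and endpoints were estimated by linear interpolation. TGI is the concentration that stops growth completely.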

Tests used:
Assay in all cases: DTP human tumour cell line panel, 48 h
SF-295 CNS = system: SF-295 CNS
TK-10 renal = system: TK-10 renal
KM12 colon = system: KM12 colon
OVCAR-8 ovarian = system: OVCAR-8 ovarian
ACHN renal = system: ACHN renal
SW-620 colon = system: SW-620 colon
KM20L2 colon = system: KM20L2 colon
HT29 colon = system: HT29 colon
SNB-19 CNS = system: SNB-19 CNS
MALME-3M melanoma = system: MALME-3M melanoma
SF-268 CNS = system: SF-268 CNS
HCC-2998 colon = system: HCC-2998 colon
DLD-1 colon = system: DLD-1 colon
SNB-75 CNS = system: SNB-75 CNS
786-0 renal = system: 786-0 renal
SK-MEL-5 melanoma = system: SK-MEL-5 melanoma
NCI-H23 lung = system: NCI-H23 lung
CCRF-CEM leukemia = system: CCRF-CEM leukemia
OVCAR-5 ovarian = system: OVCAR-5 ovarian
HCT-15 colon = system: HCT-15 colon
SR leukemia = system: SR leukemia
NCI-H226 lung = system: NCI-H226 lung
SN12C renal = system: SN12C renal
UO-31 renal = system: UO-31 renal
HL-60(TB) leukemia = system: HL-60(TB) leukemia
U251 CNS = system: U251 CNS
SK-MEL-2 melanoma = system: SK-MEL-2 melanoma
A498 renal = system: A498 renal
RPMI-8226 leukemia = system: RPMI-8226 leukemia
M14 melanoma = system: M14 melanoma
CAKI-1 renal = system: CAKI-1 renal
HOP-92 NSCLC = system: HOP-92 NSCLC
K-562 leukemia = system: K-562 leukemia
DMS 114 small cell lung = system: DMS 114 small cell lung
SK-OV-3 ovarian = system: SK-OV-3 ovarian
UACC-62 melanoma = system: UACC-62 melanoma
OVCAR-4 ovarian = system: OVCAR-4 ovarian
A549 NSCLC = system: A549 NSCLC
SF-539 CNS = system: SF-539 CNS
SK-MEL-28 melanoma = system: SK-MEL-28 melanoma
IGROV1 ovarian = system: IGROV1 ovarian
HCT-116 colon = system: HCT-116 colon
MOLT-4 leukemia = system: MOLT-4 leukemia
NCI-H460 lung = system: NCI-H460 lung
RXF 393 renal = system: RXF 393 renal
LXFL 529 NSCLC = system: LXFL 529 NSCLC
LOX IMVI melanoma = system: LOX IMVI melanoma
EKVX NSCLC = system: EKVX NSCLC
UACC-257 melanoma = system: UACC-257 melanoma

Measured: TGI

COC(=O)/C(=C/c1ccc(OC)cc1)NC(=O)c1ccccc1
> 100 µM: all assays above
